Experimental data reported in ChEMBL document CHEMBL4196086, “Recent advances of imidazole-containing derivatives as anti-tubercular agents” (Eur J Med Chem, 2018).
Values after ≈ are worked out from the molar mass of the structure shown.

Columns and labels:
[1] = test system: Mycobacterium tuberculosis; experiment: Potency index, ratio of ofloxacin MIC to compound MIC for Mycobacterium tuberculosis; assay type: functional
[2] = test system: Mycobacterium tuberculosis; experiment: Potency index, ratio of ethambutol MIC to compound MIC for Mycobacterium tuberculosis; assay type: functional
[3] = test system: Mycobacterium tuberculosis; experiment: Potency index, ratio of streptomycin MIC to compound MIC for Mycobacterium tuberculosis; assay type: functional
[4] = test system: Mycobacterium tuberculosis; experiment: Antimycobacterial activity against Mycobacterium tuberculosis; assay type: functional
[5] = test system: Mycobacterium tuberculosis; experiment: Potency index, ratio of isoniazid MIC to compound MIC for Mycobacterium tuberculosis; assay type: functional
[6] = test system: Mycobacterium tuberculosis; experiment: Potency index, ratio of PA-824 MIC to compound MIC for Mycobacterium tuberculosis; assay type: functional
[7] = test system: Mycobacterium tuberculosis; experiment: Potency index, ratio of ethionamide MIC to compound MIC for Mycobacterium tuberculosis; assay type: functional
[8] = test system: Mycobacterium tuberculosis; experiment: Potency index, ratio of pyrazinamide MIC to compound MIC for Mycobacterium tuberculosis H37Rv; assay type: functional
[9] = test system: Mycobacterium tuberculosis; experiment: Potency index, ratio of isoniazid MIC to compound MIC for Mycobacterium tuberculosis H37Rv; assay type: functional
HEK293 = experiment: Cytotoxicity against HEK293 cells after 24 hrs by MTT assay; assay type: cell-based; details: Homo sapiens, HEK293, 24 h
[10] = test system: Mycobacterium tuberculosis; experiment: Potency index, ratio of ciprofloxacin MIC to compound MIC for Mycobacterium tuberculosis H37Rv; assay type: functional
[11] = test system: Mycobacterium tuberculosis; experiment: Potency index, ratio of streptomycin MIC to compound MIC for Mycobacterium tuberculosis H37Rv; assay type: functional
[12] = test system: Mycobacterium tuberculosis; experiment: Antimycobacterial activity against Mycobacterium tuberculosis H37Rv after 5 days by MABA; assay type: functional; details: 120 h
[13] = test system: Mycobacterium tuberculosis; experiment: Antimycobacterial activity against replicating Mycobacterium tuberculosis; assay type: functional
[14] = test system: Mycobacterium tuberculosis; experiment: Antimycobacterial activity against non-replicating Mycobacterium tuberculosis; assay type: functional
[15] = test system: Mycobacterium tuberculosis; experiment: Antimycobacterial activity against Mycobacterium tuberculosis ATCC 35820; assay type: functional
[16] = test system: Mycobacterium tuberculosis; experiment: Antimycobacterial activity against Mycobacterium tuberculosis ATCC 35828; assay type: functional
[17] = test system: Mycobacterium tuberculosis; experiment: Antimycobacterial activity against Mycobacterium tuberculosis ATCC 27294; assay type: functional
[18] = test system: Mycolicibacterium smegmatis; experiment: Antimycobacterial activity against Mycobacterium smegmatis; assay type: functional
[19] = test system: Mycobacterium tuberculosis; experiment: Antimycobacterial activity against Mycobacterium tuberculosis ATCC 35837; assay type: functional
[20] = test system: Mycolicibacterium fortuitum; experiment: Antimycobacterial activity against Mycobacterium fortuitum; assay type: functional
[21] = test system: Mycobacterium tuberculosis; experiment: Antimycobacterial activity against Mycobacterium tuberculosis ATCC 35822; assay type: functional
[22] = test system: Mycobacterium tuberculosis; experiment: Antimycobacterial activity against Mycobacterium tuberculosis H37Rv ATCC 27294 by serial dilution assay; assay type: functional
[23] = test system: Mycobacterium tuberculosis; experiment: Antimycobacterial activity against Mycobacterium tuberculosis H37Rv; assay type: functional

Cc1ccn2c(C(=O)NCc3ccccc3Cl)c(C)nc2c1
Ratio [1]: >100 | Ratio [2]: >100 | Ratio [3]: >100 | MIC [4]: 0.003 µM (≈ 0.000941 µg/mL) | Ratio [5]: >100 | Ratio [6]: >100 | Ratio [7]: >100

Cn1c(-c2cccc(Cl)c2Cl)nc2cc(-c3nc(-c4ccc(Cl)cc4)no3)ccc21
Ratio [8]: 2 | Ratio [9]: 4 | IC50 (HEK293): > 500 µg/mL | Ratio [10]: 2 | Ratio [11]: 4 | MIC [12]: 1.6 to 25 µg/mL (≈ 3.51 to 54.9 µM)

Cn1c(-c2cccc(Cl)c2F)nc2cc(-c3nc(Cc4cccc(Cl)c4)no3)ccc21
Ratio [8]: 2 | Ratio [9]: 4 | IC50 (HEK293): > 500 µg/mL | Ratio [10]: 2 | Ratio [11]: 4 | MIC [12]: 1.6 to 25 µg/mL (≈ 3.53 to 55.2 µM)

CCCc1cc(=O)oc2c1c(OC)cc1[nH]c(C(=O)OCC)[n+]([O-])c12
MIC [13]: > 50 µg/mL | MIC [14]: > 50 µg/mL

Cn1c(-c2cccc(Cl)c2Cl)nc2cc(-c3nc(-c4ccccc4Cl)no3)ccc21
Ratio [8]: 2 | Ratio [9]: 4 | IC50 (HEK293): 355 µg/mL (≈ 780 µM) | Ratio [10]: 2 | Ratio [11]: 4 | MIC [12]: 1.6 to 25 µg/mL (≈ 3.51 to 54.9 µM)

CCCc1cc(=O)oc2c1c(OC)cc1[nH]c(C(=O)N(C)C)[n+]([O-])c12
MIC [13]: > 50 µg/mL | MIC [14]: > 50 µg/mL

Clc1ccc(-n2ncc(C(c3ccccc3)n3ccnc3)c2-c2ccccc2Cl)c(Cl)c1 (configuration not stated)
MIC [15]: 6.7 to 57.7 µM (≈ 3.21 to 27.7 µg/mL) | MIC [16]: 6.7 to 57.7 µM (≈ 3.21 to 27.7 µg/mL) | MIC [17]: 6.7 to 57.7 µM (≈ 3.21 to 27.7 µg/mL) | MIC [18]: 6.7 to 57.7 µM (≈ 3.21 to 27.7 µg/mL) | MIC [19]: 6.7 to 57.7 µM (≈ 3.21 to 27.7 µg/mL) | MIC [20]: 6.7 to 57.7 µM (≈ 3.21 to 27.7 µg/mL) | MIC [21]: 6.7 to 57.7 µM (≈ 3.21 to 27.7 µg/mL)

CCCSc1nnc(-c2ncc([N+](=O)[O-])n2C)s1
MIC [22]: 3.12 µg/mL (≈ 10.9 µM)

CCCc1cc(=O)oc2c1c(OCCN1CCOCC1)cc1[nH]c(C(=O)N(C)C)[n+]([O-])c12
MIC [13]: > 50 µg/mL | MIC [14]: > 50 µg/mL

Cn1c(-c2cccc(Cl)c2F)nc2cc(-c3nc(-c4ccc(Cl)cc4)no3)ccc21
Ratio [8]: 2 | Ratio [9]: 4 | IC50 (HEK293): > 500 µg/mL | Ratio [10]: 2 | Ratio [11]: 4 | MIC [12]: 1.6 to 25 µg/mL (≈ 3.64 to 56.9 µM)

CO[C@H]1/C=C/O[C@@]2(C)Oc3c(C)c(O)c4c(O)c(c(/C=N/N5CCN(C)CC5)c(O)c4c3C2=O)NC(=O)/C(C)=C\C=C\[C@H](C)[C@H](O)[C@@H](C)[C@@H](O)[C@@H](C)[C@H](OC(C)=O)[C@@H]1C [RIFAMPIN]
MIC98 [23]: 40 µg/mL (≈ 48.6 µM) | MIC [22]: 0.125 to 0.25 µg/mL (≈ 0.152 to 0.304 µM)
